From US20240391912A1, “MORPHIC FORMS OF CFT7455 AND METHODS OF MANUFACTURE THEREOF” (C4 THERAPEUTICS, INC., priority 2022, published 2024)
Values after ≈ are worked out from the molar mass of the structure shown.

Experiments:
[1] = system: relapsed/refractory (r/r) MCL; details: r/r subjects with MCL following bortezomib; cited from earlier work
[2] = Approximate solubility of Compound 5 polymorphs in EtOH:DCM (v:v=1:4); format: physicochemical; details: EtOH:DCM (v:v = 1:4), 25° C.
Method: Four polymorphs (Form V, Form VI, Form VII and Form VIII) were weighed respectively and a suitable amount of solvent mixture EtOH:DCM (v:v=1:4) was added. The obtained samples were stirred at a rate of 400 rpm at 25° C.

[3] = Solubility of Compound 5 Form VI and Form VIII at 25° C., equilibration for 24 hours (HPLC; XRPD of residual solids); format: physicochemical
Method: 11 mg (for 20 mg/mL target concentration) or 22 mg (for 50-60 mg/mL target concentration) of Compound 5 Form VI and Form VIII (equivalent to 10 mg or 20 mg of anhydrate free base) was weighed into a 4 mL glass vial, respectively. Up to 0.5 mL of potential eluent medium was added. The obtained suspensions/solutions were stirred at 25° C. at 400 rpm for 24 hours and then centrifuged at 25° C. at 14,000 rpm for 5 minutes. The residual solids were characterized by XRPD to determine the physical form. The supernatants (0.1 mL) were evaporated at about 22-25° C./30-60% RH.

[4] = Bulk stability of Compound 5 Form VI and Form VIII at 25° C./60% RH, open container, 1 week (XRPD, HPLC, color); format: physicochemical; details: listed as Form VIII
Method: Compound 5 Form VI and Form VIII were placed at 25° C./60% RH in an open container over 1 week. Samples after the stress were characterized by XRPD and HPLC and inspected for color change.

[5] = Characterization of polymorphs and pseudo-polymorphs of Compound 5; format: physicochemical
[6] = Crystallization of Compound 5 by addition of anti-solvent; format: physicochemical
Method: The obtained solutions were filtered through a 0.45 μm syringe membrane filter. […] Precipitates were investigated by XRPD. For samples with different XRPD patterns, ^1H-NMR was performed.

[7] = Equilibration of Compound 5 Form V with solvents at 25° C. for 1 week (XRPD); format: physicochemical
Method: The obtained suspensions were centrifuged at 14,000 rpm. The solid parts (wet cakes) were investigated by XRPD.

[8] = Crystallization of Compound 5 from hot saturated solutions by fast cooling; format: physicochemical; details: fast cooling to about 0° C.
Method: Based on approximate solubility results, about 30 mg of Compound 5 Form V was dissolved in a minimal amount of selected solvent at 50° C. […] No precipitate came out by fast cooling.

[9] = Crystallization of Compound 5 at room temperature by fast evaporation; format: physicochemical
Method: Based on approximate solubility results, about 20 mg of Compound 5 Form V was dissolved in 1-6 mL of solvents. […] The solid residue was investigated by XRPD. For samples with different XRPD patterns, ^1H-NMR was performed.

[10] = Approximate solubility of Compound 5 Form V at 25° C. (visual observation / HPLC); format: physicochemical; details: for solubility: solubilized at about 25° C.
Method: About 5 mg of Compound 5 Form V was weighed to an 8 mL glass vial. 100 μL aliquots of each solvent were added to dissolve the drug substance at 25° C. Vortex and sonication were applied to assist dissolution. The maximum volume of each solvent added is 1 mL. Approximate solubility was determined by visual observation.
For low solubility samples: Aliquots of selected solvent were added to 5 mg of Compound 5 create a suspension. The suspensions were kept at 25° C. for 24 hours. The suspension was taken out and centrifuged. To eliminate solvent effect, 50 μL or 100 μL of supernatant was added into a 2 mL glass vial and evaporated at ambient condition (22-25° C., 30-60% RH).

[11] = THF/water (v:v = 1:2.5), 25° C., 24 hours, target conc. 20 mg/mL, listed as Form VIII

## Nc1cccc2c1CN(C1CCC(=O)NC1=O)C2=O (stereo not shown) [lenalidomide]
[1]
  median duration of response [DOR]: 16.6 months
  overall response rate [ORR]: 28%

## O=C1CCC(N2C(=O)c3cccc4c(Cc5ccc(CN6CCOCC6)cc5)ccc2c34)C(=O)N1 (racemic) [Compound 5 Form VIII]
[2]; concentration 10 mg/mL, listed as Form VIII
  Approximate solubility (visual appearance): Few solids
[2]; concentration 20 mg/mL, listed as Form VIII
  Approximate solubility (visual appearance): Few solids
[3]; EtOH/DCM (v:v = 1:4), 25° C., 24 hours, target conc. 50-60 mg/mL, LOQ 0.8 μg/mL, listed as Form VIII
  solubility: 39000 µg/mL (≈ 83.1 mM)
[3]; EtOH:DCM (v:v=1:4), 25° C., 24 h
  physical form after solubility test: Physical mixture of Form V and Form VI
[3]; MeOH/DCM (v:v = 1:2), 25° C., 24 hours, target conc. 50-60 mg/mL
  XRPD of residual solids: Form V
[3]; MeOH:DCM (v:v=1:2) and THF:water (v:v=1:2.5), 25° C., 24 h
  physical form after solubility test: converted to Form V
[3]; THF/IPA (v:v = 1:2), 25° C., 24 hours, target conc. 20 mg/mL, listed as Form VIII
  solubility: 1000 µg/mL (≈ 2.13 mM)
[3]; [11]
  XRPD of residual solids: Form V
  solubility: 500 µg/mL (≈ 1.06 mM)
[3]; THF:2-propanol (v:v=1:2) and THF:Heptane (v:v=1:2), 25° C., 24 h
  physical form after solubility test: converted to Form VI
[3]; in EtOH/DCM (v:v=1:4), about 25° C., 24 h, listed as Form VIII
  solubility: ~39000 µg/mL (≈ 83.1 mM)
[3]; in MeOH:DCM (v:v=1:2) and EtOH:DCM (v:v=1:4), 25° C. for 24 h, listed as Form VIII
  solubility: 30000 to 40000 µg/mL
[4]
  bulk stability, physical (form): converted to Form V
[4]; solid state, initial purity 93.1% (Form VI), 95.6% (Form VIII)
  Bulk (HPLC) Purity: 95.6%
[4]; solid state
  Bulk (XRPD): Form V
[5]; DSC
  Dehydration and evaporation of solvent from (by DSC): about 8° C.;
[5]; DSC, listed as Form VIII
  Enthalpy (by DSC): 105 J/g
  Melting onset Tonset (by DSC): Tonset 231.4° C.,
[5]; at 200° C.
  Weight loss (by TGA): 4.7% at 200 °C
[5]; listed as Form VIII
  Residual ion (by IC): Br−: Br^−: 0.01 equiv.
  Residual ion (by IC): Cl−: Cl^−: 0.005 equiv.;
  Residual ion (by IC): Li+: Li^+: 0.04 equiv.;
  Residual ion (by IC): Na+: Na^+: 0.01 equiv.

## O=C1CCC(N2C(=O)c3cccc4c(Cc5ccc(CN6CCOCC6)cc5)ccc2c34)C(=O)N1 (racemic) [Compound 5 Form V]
[2]; concentration 5 mg/mL
  Approximate solubility (visual appearance): Suspension
[2]; concentration 10 mg/mL, listed as Form V
  Approximate solubility (visual appearance): Suspension
[2]; concentration 20 mg/mL, listed as Form V
  Approximate solubility (visual appearance): Suspension
[6]; precipitate (Form VIII) from DMF(1.0 mL)/H2O (2.0 mL)
  Additional analysis 1H-NMR: DMF: 2 equiv. DMF
[6]; solvent DMF(1.0 mL), anti-solvent H2O (2.0 mL)
  XRPD: Form VIII
[5]
  Residual solvent (by 1H-NMR): THF: 0.4% residual of
[5]; DSC
  Endothermic onset (by DSC): onset at 220.0 °C
[5]; DSC, listed as Form V
  Dehydration (by DSC): Tonset 38.5° C.;
[5]; XRPD method 2
  Crystallinity (by XRPD): Crystalline
[5]; at 140° C.
  Weight loss (by TGA): 5.1% at 140 °C
[7]; equilibration in Acetone
  XRPD: Form V
[7]; equilibration in Benzyl alcohol
  XRPD: Form V
[7]; equilibration in Chloroform
  XRPD: Form V
[7]; equilibration in DMF
  XRPD: Form V
[7]; equilibration in MeOH/DCM (v:v = 1:1)
  XRPD: Form V
[7]; equilibration in Pyridine, wet cake
  XRPD: Form V
[7]; equilibration in THF
  XRPD: Form V
[7]; equilibration in Trifluoroethanol
  XRPD: Form V
[8]; 1-Methyl-2-pyrrolidinone, 50° C.
  Comments: Clear solution
[8]; Acetone, dissolved at 50° C.
  Comments: Clear solution
[8]; Benzyl alcohol, 50° C.
  Comments: Clear solution
[8]; Chloroform, 50° C.
  Comments: Clear solution
[8]; DMF, 50° C.
  Comments: Clear solution
[8]; Pyridine, 50° C.
  Comments: Clear solution
[8]; THF, 50° C.
  Comments: Clear solution
[8]; Trifluoroethanol, 50° C.
  Comments: Clear solution
[9]; fast evaporation from 1-Methyl-2-pyrrolidinone
  XRPD: Form VII
[9]; fast evaporation from Benzyl alcohol
  XRPD: Form V
[9]; fast evaporation from Chloroform
  XRPD: Amorphous form
[9]; fast evaporation from DMSO, room temperature, dry nitrogen flow
  XRPD: Form VI
[9]; fast evaporation from THF
  XRPD: Form V
[9]; fast evaporation from Trifluoroethanol
  Additional analysis (appearance of residue): Oil
[9]; residue (Form VI) of fast evaporation from DMSO
  Additional analysis 1H-NMR: DMSO: ^1H-NMR: 0.4 equiv. DMSO
[9]; residue (Form VII) of fast evaporation from 1-Methyl-2-pyrrolidinone, 2 unknown peaks
  Additional analysis 1H-NMR: NMP: ^1H-NMR: 1.6 equiv. NMP;
[10]; 1,4-Dioxane, tested by HPLC
  Solubility (mg/mL) at 25° C.: 2.3 mg/mL (≈ 4.9 mM)
[10]; 1-Methyl-2-pyrrolidinone, tested by observation
  Solubility (mg/mL) at 25° C.: >50 mg/mL
[10]; 2-Me THF, tested by HPLC
  Solubility (mg/mL) at 25° C.: 0.2 mg/mL (≈ 0.426 mM)
[10]; Acetic acid, tested by HPLC
  Solubility (mg/mL) at 25° C.: 5.5 mg/mL (≈ 11.7 mM)
[10]; Acetone, tested by HPLC
  Solubility (mg/mL) at 25° C.: 3.3 mg/mL (≈ 7.03 mM)
[10]; Acetonitrile, tested by HPLC
  Solubility (mg/mL) at 25° C.: 2.2 mg/mL (≈ 4.69 mM)
[10]; Anisole, tested by HPLC
  Solubility (mg/mL) at 25° C.: 1.1 mg/mL (≈ 2.34 mM)
[10]; Benzyl alcohol, tested by observation
  Solubility (mg/mL) at 25° C.: 12 to 25 mg/mL
[10]; Chloroform, tested by observation
  Solubility (mg/mL) at 25° C.: 5 to 10 mg/mL
[10]; DMF, tested by observation
  Solubility (mg/mL) at 25° C.: 25 to 50 mg/mL
[10]; DMSO, tested by observation
  Solubility (mg/mL) at 25° C.: >50 mg/mL
[10]; Ethanol, tested by HPLC
  Solubility (mg/mL) at 25° C.: 0.6 mg/mL (≈ 1.28 mM)
[10]; Ethyl acetate, tested by HPLC
  Solubility (mg/mL) at 25° C.: 0.1 mg/mL (≈ 0.213 mM)
[10]; MeOH/DCM (v:v = 1:1), tested by observation
  Solubility (mg/mL) at 25° C.: ~5 mg/mL (≈ 10.6 mM)
[10]; Methanol, tested by HPLC
  Solubility (mg/mL) at 25° C.: 0.2 mg/mL (≈ 0.426 mM)
[10]; Propylene glycol methyl ether, tested by HPLC
  Solubility (mg/mL) at 25° C.: 2.3 mg/mL (≈ 4.9 mM)
[10]; Propylene glycol, tested by HPLC
  Solubility (mg/mL) at 25° C.: 3.4 mg/mL (≈ 7.24 mM)
[10]; Pyridine, tested by observation
  Solubility (mg/mL) at 25° C.: 25 to 50 mg/mL
[10]; THF, tested by HPLC
  Solubility (mg/mL) at 25° C.: 3.8 mg/mL (≈ 8.09 mM)
[10]; Toluene, tested by HPLC
  Solubility (mg/mL) at 25° C.: 0.2 mg/mL (≈ 0.426 mM)
[10]; Trifluoroethanol, tested by observation
  Solubility (mg/mL) at 25° C.: 25 to 50 mg/mL
[10]; in 1-methyl-2-pyrrolidinone
  solubility: at least 50 mg/mL
[10]; in DMSO
  solubility: at least 50 mg/mL
